This note sets out measurements from ChEMBL document CHEMBL1130138, “Design of low molecular weight hematoregulatory agents from the structure-activity relationship of a dimeric pentapeptide” (1997).

Structures are written as SMILES.

The subject of one test is C6. Nature of the test: Neutralization of colony - stimulating activity was determined by incubating supernatants from stromal cells stimulated by compound (1000 ng/mL) with an antibody raised against KC[38-72]. Format: functional, Mus musculus.
Details: not given
The compound `NCCCC[C@H](NC(=O)[C@H](CCCC[C@H](NC(=O)[C@H](CC(=O)O)NC(=O)[C@H](CCC(=O)O)NC(=O)[C@@H]1CCC(=O)N1)C(=O)N[C@@H](CCCCN)C(=O)O)NC(=O)[C@H](CC(=O)O)NC(=O)[C@H](CCC(=O)O)NC(=O)[C@@H]1CCC(=O)N1)C(=O)O` [GLASPIMOD] displayed an HSF of 0 units/mL.

The test is the same for the next values; noted with them: in the assay text read “100 ng/mL” for “1000 ng/mL”.
For the compound `O=C(N[C@H](CO)C(=O)O)c1nccnc1C(=O)N[C@H](CO)C(=O)O`, the HSF amounted to 0 units/mL.
Still for that read-out and setting: as for `O=C(N[C@@H](CO)C(=O)O)c1nccnc1C(=O)N[C@H](CO)C(=O)O`, the figure is 0 units/mL.

A further test relates to C6. Nature of the test: HSF produced by bone marrow-derived stromal cell lines C6.4 on stimulation with the compound at (1000 ng/mL) was determined in vitro in an GM-CFC assay. Format: functional, Mus musculus.
Details: not given
The compound `CC(=O)Nc1cccc(C(=O)N[C@@H](CO)C(=O)N[C@@H](CC(=O)O)C(=O)N[C@@H](CCCC[C@H](NC(=O)[C@H](CC(=O)O)NC(=O)[C@H](CO)NC(=O)c2cccc(NC(C)=O)n2)C(=O)N[C@@H](CCCCN)C(=O)O)C(=O)N[C@@H](CCCCN)C(=O)O)n1` gave an HSF of 2.4e+06 units/mL.
In turn, `NCCCC[C@H](NC(=O)[C@H](CCCC[C@H](NC(=O)[C@H](CC(=O)O)NC(=O)[C@H](CO)NC(=O)c1cc2ccccc2[nH]1)C(=O)N[C@@H](CCCCN)C(=O)O)NC(=O)[C@H](CC(=O)O)NC(=O)[C@H](CO)NC(=O)c1cc2ccccc2[nH]1)C(=O)O` came in with an HSF of 0 units/mL.
`O=C(NC(CO)C(=O)O)c1nccnc1C(=O)N[C@@H](CO)C(=O)O` (single isomer, unassigned) returned an HSF of 0 units/mL.
Same read-out and setting: as for `NCCCC[C@H](NC(=O)[C@H](CCCC[C@H](NC(=O)[C@H](CC(=O)O)NC(=O)[C@H](CO)NC(=O)c1ccc2ccccc2n1)C(=O)N[C@@H](CCCCN)C(=O)O)NC(=O)[C@H](CC(=O)O)NC(=O)[C@H](CO)NC(=O)c1ccc2ccccc2n1)C(=O)O`, the figure is 0 units/mL.
The same measure, in the same setting: as for `O=C(N[C@@H](CO)C(=O)O)c1cccnc1C(=O)N[C@H](CO)C(=O)O`, the figure is 1.2e+06 units/mL; as for `NCCCC[C@H](NC(=O)[C@H](CCCC[C@H](NC(=O)[C@H](CC(=O)O)NC(=O)[C@H](CO)NC(=O)c1ncccc1O)C(=O)N[C@@H](CCCCN)C(=O)O)NC(=O)[C@H](CC(=O)O)NC(=O)[C@H](CO)NC(=O)c1ncccc1O)C(=O)O`, 2.8e+06 units/mL.
Still for that read-out and setting: then `NCCCC[C@H](NC(=O)[C@H](CCCC[C@H](NC(=O)[C@H](CC(=O)O)NC(=O)[C@H](CO)NC(=O)c1nccc2ccccc12)C(=O)N[C@@H](CCCCN)C(=O)O)NC(=O)[C@H](CC(=O)O)NC(=O)[C@H](CO)NC(=O)c1nccc2ccccc12)C(=O)O`, with 0 units/mL; and `NCCCC[C@H](NC(=O)[C@H](CCCC[C@H](NC(=O)[C@H](CC(=O)O)NC(=O)[C@H](CO)NC(=O)c1ccc[nH]1)C(=O)N[C@@H](CCCCN)C(=O)O)NC(=O)[C@H](CC(=O)O)NC(=O)[C@H](CO)NC(=O)c1ccc[nH]1)C(=O)O`, with 1e+06 units/mL.
In the case of `NCCCC[C@H](NC(=O)[C@H](CCCC[C@H](NC(=O)[C@H](CC(=O)O)NC(=O)[C@H](CO)NC(=O)c1cnccn1)C(=O)N[C@@H](CCCCN)C(=O)O)NC(=O)[C@H](CC(=O)O)NC(=O)[C@H](CO)NC(=O)c1cnccn1)C(=O)O`, the HSF came to 120000 units/mL.
The same measure, in the same setting: as for `O=C(N[C@H](CO)C(=O)O)c1cccnc1C(=O)N[C@@H](CO)C(=O)O`, the figure is 0 units/mL.
On the same count and under the same terms, as for `O=C(N[C@@H](CO)C(=O)O)c1ccccc1C(=O)N[C@H](CO)C(=O)O`, the figure is 0 units/mL.
